From patent US8039585B2, “Therapeutic administration of the scrambled anti-angiogenic peptide C16Y” (The United States of America as represented by the …, priority 2004, dated 2011)
Ends that are not written are not given here.

Experiments:
[1] = test system: tumor growth and lung colonization; conditions: Fridman 1990; cited from earlier work
HUVECs = assay: Endothelial cell tube-forming assay on Matrigel; assay type: cell-based, human; set-up: key to Disruption of tube formation / Activity (tube formation, truncated C16Y peptides): +: tubes slightly affected; ++: tubes moderately affected; +++: tubes disrupted; ++++: tubes completely disrupted; −: tubes resemble control; conditions: for Activity (tube formation, truncated C16Y peptides): truncated versions of C16Y, concentration not given; for Disruption of tube formation: 16 hours
Description: FIG. 3: Disruption of endothelial cell tube formation by C16Y peptide. 48-well plates were coated with 200 μl of Matrigel per well. Each well was treated with RPMI containing 24,000 human umbilical vein endothelial cells (HUVECS) and 100 mg/L endothelial cell growth factor in the presence of 10-75 μg/ml of C16 or scrambled C16 peptide for 16 hours. Control wells contained medium only. Cells were fixed and stained, and tube formation was scored by a blinded observer.
Tube-forming assays were performed as described previously (Ponce 2001). 48-well plates were coated with 200 μl/well of Matrigel (Gho 2001; Kubota 1988), a basement membrane matrix. HUVECs (24,000 cells/well) were plated in RPMI 1640 containing 10% bovine calf serum, defined and supplemented (HyClone Laboratories, Inc., Logan, Utah), along with 100 mg/liter of endothelial cell growth factor (Collaborative Biomedical). C16 or scrambled C16 peptides were added at concentrations ranging from 10-75 μg/ml. Control wells contained medium only. After 16 hours, cells were fixed and stained with Diff-Quick fixative (methanol) and solution II (6.25% (w/v) each of azure A and methylene blue) (Dade A G, Dudingen, Switzerland), and tube formation was scored by a blinded observer. Each peptide was tested at least in triplicate, and the assays were repeated a minimum of three times.
Tube formation assays were repeated using truncated versions of the C16Y peptide to determine the minimal active sequence of the peptide. The carboxyl end of C16Y was not necessary for activity, whereas the amino terminal aspartic acid was required. The minimal active sequence for the C16Y peptide is shown in SEQ ID NO: 2. Each of the peptides containing at least this 8 amino acid sequence (SEQ ID NOs: 1-5) inhibited tube formation.

[2] = test system: human umbilical vein endothelial cells (HUVECs); assay: Endothelial cell adhesion to peptide-coated plates; assay type: cell-based; conditions: 0-5 μg coated, 1.5 hours
Description: FIG. 1: Endothelial cell adhesion by C16 and scrambled C16 peptides. 96-well plates were coated with either laminin-1 (0.5 μg), C16 peptide (0-5 μg), or scrambled C16 peptide (0-5 μg). Each well was rinsed with PBS, blocked with BSA, rinsed again with PBS, and then treated with 0.1 ml of RPMI containing 35,000 human umbilical vein endothelial cells (HUVECs) for 1.5 hours at 37° C. Unbound cells were decanted, and attached cells were stained with crystal violet and quantified by measuring their absorbance at 600 nm. Cells adhered to C16, C16S, and C16Y peptides. More cells adhered to C16Y than to any other peptide at all concentrations tested. Bars represent ±SD.
Endothelial cell adhesion assays were performed on 96-well plates coated overnight with either laminin-1 (0.5 μg) or synthetic laminin peptides C16, C16S, C16J, C16L, or C16Y (0-5 μg) as described previously (Malinda 1999). Wells were rinsed with PBS, blocked with 2 mg/ml of BSA, and rinsed again with PBS. Cell adhesion was performed using 0.1 ml of RPMI 1640 containing 35,000 HUVECs. After a 1.5-hour incubation period at 37° C., unbound cells were decanted and attached cells were fixed and stained with 20% methanol/0.2% crystal violet. Dishes were extensively rinsed, and bound dye was solubilized in 2% SDS and quantitated at 600 nm. Assays were done in triplicate at least three times.

[3] = test system: endothelial cell attachment to laminin-1; assay: Competition assay: block of endothelial cell adhesion to laminin-1; assay type: cell-based, human
Description: FIG. 2: Ability of C16 and scrambled C16 peptides to block laminin-1 endothelial cell adhesion. 96-well plates were coated with laminin-1 (0.5 μg) in the presence of competing C16 or scrambled C16 peptides (0-100 μg/ml). Each wells was treated with 0.1 ml of RPMI containing 35,000 human umbilical vein endothelial cells (HUVECs) for 1.5 hours at 37° C. Unbound cells were decanted, and attached cells were stained with crystal violet and quantified by measuring their absorbance at 600 nm. […] Bars represent ±SD.
Competition experiments were done using 96-well plates coated with laminin-1 (0.5 μg) in the presence of 0-100 μg/ml of competing C16, C16S, C16J, C16L, or C16Y synthetic laminin peptide as specified. Control wells were coated with BSA only. Wells were contacted with 0.1 ml of RPMI 1640 containing 35,000 HUVECs. After a 1.5-hour incubation at 37° C., unbound cells were decanted and attached cells were fixed and stained with 20% methanol/0.2% crystal violet. Dishes were extensively rinsed, and bound dye was solubilized in 2% SDS and quantitated at 600 nm. Assays were done in triplicate at least three times.

[4] = Toxicity statement (no method described)
[5] = test system: bFGF-induced angiogenesis; assay: CAM assay, bFGF-induced angiogenesis; assay type: in vivo, chick; conditions: 50 ng bFGF + 0.05 μg peptide
Description: FIG. 5: Inhibition of bFGF-induced angiogenesis by C16Y. 50 ng of angiogenic stimulator (bFGF) and varying concentrations of either C16S or C16Y peptides were applied to 10-day old embryonated eggs in 5 μl of water, and CAMs were analyzed for the presence or absence of angiogenesis.
50 ng of angiogenic stimulator (bFGF) and varying concentrations of either C16S or C16Y peptides were applied to 10-day old embryonated eggs in 5 μl of water, and CAMs were analyzed after 3 days for the presence or absence of angiogenesis.

[6] = test system: C16-induced angiogenesis in the chick CAM; assay: CAM assay, C16-induced angiogenesis; assay type: in vivo
Description: FIG. 4: Inhibition of C16-induced angiogenesis by C16Y. 0.5 μg of angiogenic stimulator (C16 peptide) and varying concentrations of either C16S or C16Y peptides were applied to 10-day-old embryonated eggs in 5 μl of water. After 3 days, microphotographs were taken of the eggs to determine angiogenesis levels. Negative control eggs were treated with water only (panel a), while positive control eggs were treated with bFGF only (not shown). As expected, C16 peptide administered alone stimulated angiogenesis (panel d). […] When the amount of inhibitor peptide was lowered to 0.05 μg, C16Y peptide continued to inhibit angiogenesis (panel f), while C16S peptide had no effect (panel c).
The CAM assay was performed using 10-day-old embryonated eggs (CBT, Charlestown, Md.) as described previously (Gho 1999). On embryonal day 3, approximately 4 ml of ovalbumin was removed from each egg. After opening windows on embryonal day 10, the angiogenic stimulus (C16) and test competitor peptides in 5 μl of distilled water were applied to the CAM after drying on 13-mm diameter quartered plastic coverslips (Thermanox; Nalge, NUNC International, Naperville, Ill.). Three days later, the eggs were scored for a positive response and photographed. The positive control was bFGF, and the negative control was the vehicle water. Experiments were repeated twice using a minimum of 11 eggs for each data point.

## YIGSR
[1]
  Activity lower than that of C16Y: ~10 fold

## DFKLFA
HUVECs
  Activity (tube formation, truncated C16Y peptides): −

## C16L: scrambled peptide of C16 (LTFRAKVYFIKD-NH2) [Peptide C16L]
[2]
  Endothelial cell adhesion to coated peptide: did not attach
[3]
  Dose showing some inhibition of attachment to laminin-1: > 75 µg/mL
HUVECs
  Effect on endothelial tube formation: no activity at lower doses and only slight tube disruption at higher concentrations
HUVECs; peptide concentration 10 μg/ml
  Disruption of tube formation: −
HUVECs; peptide concentration 25 μg/ml
  Disruption of tube formation: −
HUVECs; peptide concentration 50 μg/ml
  Disruption of tube formation: +
HUVECs; peptide concentration 75 μg/ml
  Disruption of tube formation: ++

## DFKLFAVYIKYR-NH2 [Peptide C16Y, DFKLFAVYIKYR]
[4]
  Toxicity: not toxic

## DFKLFAVYIKY [truncated version of C16Y]
HUVECs
  Activity (tube formation, truncated C16Y peptides): ++

## DFKLF
HUVECs
  Activity (tube formation, truncated C16Y peptides): −

## DFKLFAVYI [truncated version of C16Y]
HUVECs
  Activity (tube formation, truncated C16Y peptides): ++

## KLFAVYIKYR [truncated version of C16Y]
HUVECs
  Activity (tube formation, truncated C16Y peptides): −

## C16J: scrambled peptide of C16 (IKDYLTFARVKF-NH2) [Peptide C16J]
[2]
  Endothelial cell adhesion to coated peptide: only weakly bound
[3]; 0-100 μg/ml competing peptide
  Inhibitory activity on laminin-1 cell adhesion: little activity at all of the doses tested
HUVECs
  Effect on endothelial tube formation: no activity at lower doses and only slight tube disruption at higher concentrations
HUVECs; peptide concentration 10 μg/ml
  Disruption of tube formation: −
HUVECs; peptide concentration 25 μg/ml
  Disruption of tube formation: −
HUVECs; peptide concentration 50 μg/ml
  Disruption of tube formation: −
HUVECs; peptide concentration 75 μg/ml
  Disruption of tube formation: −

## FKLFAVYIKYR [truncated version of C16Y]
HUVECs
  Activity (tube formation, truncated C16Y peptides): −

## AVYIKYR [truncated version of C16Y]
HUVECs
  Activity (tube formation, truncated C16Y peptides): −

## DRKL
HUVECs
  Activity (tube formation, truncated C16Y peptides): −

## SEQ ID NO: 6: peptide having the fibronectin sequence (residues 1023-1033) of c-elegans (DYKYFAVYYR) [reference compound]
HUVECs
  Effect on endothelial tube formation: no ability to block endothelial tube formation

## YIKYR
HUVECs
  Activity (tube formation, truncated C16Y peptides): −

## DFKLFAVY (DFKLFAVY-NH2)
HUVECs
  Activity (tube formation, truncated C16Y peptides): ++

## DFKLFAV [truncated version of C16Y]
HUVECs
  Activity (tube formation, truncated C16Y peptides): −

## DFKLFAVYIK [truncated version of C16Y]
HUVECs
  Activity (tube formation, truncated C16Y peptides): ++

## LFAVYIKYR [truncated version of C16Y]
HUVECs
  Activity (tube formation, truncated C16Y peptides): −

## VYIKYR
HUVECs
  Activity (tube formation, truncated C16Y peptides): −

## FAVYIKYR [truncated version of C16Y]
HUVECs
  Activity (tube formation, truncated C16Y peptides): −

## C16S: scrambled peptide of C16, created as a negative control, with antagonist activity (KAFDITYVRLKF; Scrambled version of C16 peptide) [Peptide C16S, reference compound]
[5]
  Inhibition of angiogenesis: no ability to inhibit angiogenesis
[6]; 0.5 μg C16 + 0.05 μg inhibitor peptide
  Inhibitory effect on angiogenesis: no longer generated an inhibitory effect
[6]; 0.5 μg C16 + 0.1 μg inhibitor peptide
  Reduction in angiogenesis: 52%
[6]; 0.5 μg C16 + 0.2 μg inhibitor peptide
  Reduction in angiogenesis: 63%
[6]; peptide alone (C16: 0.5 μg)
  Angiogenesis with peptide administered alone: neither C16Y (FIG. 4, panel e) nor C16S (data not shown) administered alone stimulated angiogenesis
HUVECs; 10-75 μg/ml tested
  Dose at which tube formation is disrupted (lowest active): 50 µg/mL
HUVECs; peptide concentration 10 μg/ml
  Disruption of tube formation: −
HUVECs; peptide concentration 25 μg/ml
  Disruption of tube formation: −
HUVECs; peptide concentration 50 μg/ml
  Disruption of tube formation: +++
HUVECs; peptide concentration 75 μg/ml
  Disruption of tube formation: +++
